Assays:
[1] = Competition of the tested compounds with DMSO for hydroxyl radicals; details: 100 μM compound, Fe3+/ascorbic acid, 30 min, 37°C; 100 µM
Method: 2.2.2.2 Competition of the tested compounds with DMSO for hydroxyl radicals
The hydroxyl radicals generated by the Fe ^3+ /ascorbic acid system, were detected according to Nash, by the determination of formaldehyde produced from the oxidation of DMSO. The reaction mixture contained EDTA (0.1 mM), Fe ^3+ (167 μM), DMSO (33 mM) in phosphate buffer (50 mM, pH 7.4), the tested compounds (concentration 0.1mM) and ascorbic acid (10 mM). After 30 min of incubation (37°C) the reaction was stopped with CCl3COOH (17% w/v) (Table 5). Trolox was used as a standard.
Superoxide (O2^-.) anion and hydroxyl radical (^.OH) are free radical species of potential importance. In the acidic conditions of ischemic brain, O2^-. is probably protonated to give HO2^-. species. Iron released from damaged brain cells is more likely to be readily available to catalyze the generation of OH radicals. Among the ROS, the hydroxyl (^•OH) free radical is possibly the most toxic, as it reacts with a number of biological important molecules. Polyunsaturated fatty acids are found in high concentrations in the CNS, and are particularly vulnerable by free radicals. Thus, we tried to test the ability of our compounds to scavenge hydroxyl radicals. […] All the derivatives of series 13 (except of 13i) present high antioxidant activity (80-100%) which is not able to be correlated with any specific structural characteristic since all contain a coumarin, a purine and an isoxazolyl moiery. […] It seems that the overall molar configuration influences the response. However, antioxidants with hydrophilic or lipophilic character are both needed to act as radical scavengers in the aqueous phase or as chain-breaking antioxidants in biological membranes.

[2] = Inhibition of linoleic acid lipid peroxidation (AAPH); details: 100 μM compound, 37°C
How it was run: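 Sodium linoleate oxidation in 0.05 M phosphate buffer, pH 7.4, at 37°C, initiated by AAPH, with test compounds added from DMSO stock. Conjugated diene hydroperoxide formation followed at 234 nm, with a DMSO-only control and Trolox as standard.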

[3] = target: T1, rat monoamine oxidase A (Rattus norvegicus, UniProt P21396); assay: Inhibition of MAO-A (spectrofluorimetric method); format: biochemical; details: 10 μM compound
T1 construct: from tissue
T1 sequence (P21396 1-526): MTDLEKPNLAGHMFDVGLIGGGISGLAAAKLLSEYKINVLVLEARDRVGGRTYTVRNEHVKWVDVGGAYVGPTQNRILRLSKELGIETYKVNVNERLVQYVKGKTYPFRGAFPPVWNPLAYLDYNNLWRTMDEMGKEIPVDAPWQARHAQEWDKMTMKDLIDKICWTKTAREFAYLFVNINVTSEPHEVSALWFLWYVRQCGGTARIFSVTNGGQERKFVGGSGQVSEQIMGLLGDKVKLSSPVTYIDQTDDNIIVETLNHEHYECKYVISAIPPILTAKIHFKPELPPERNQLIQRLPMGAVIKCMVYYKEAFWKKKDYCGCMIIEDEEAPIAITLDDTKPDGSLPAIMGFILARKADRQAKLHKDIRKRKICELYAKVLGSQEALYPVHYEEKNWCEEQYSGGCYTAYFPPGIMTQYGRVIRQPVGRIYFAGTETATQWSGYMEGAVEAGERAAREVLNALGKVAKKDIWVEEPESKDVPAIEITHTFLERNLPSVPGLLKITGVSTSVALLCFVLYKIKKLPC
Source text: 2.2.2.6 Inhibition Study on MAOs in vitro
Inhibition of rat monoamine oxidase A and B was studied by means of a spectrofluorimetric method as previously detailed.

| SMILES | ∙ΟΗ % @ 100μΜ (hydroxyl radical scavenging, percent inhibition of formaldehyde production) [1] | LP % @ 100μΜ (inhibition of lipid peroxidation) [2] | MAO-A (%) @ 10μΜ [3] |
| --- | --- | --- | --- |
| Cc1cc(=O)oc2ccc(OCC3=NOC(Cn4cnc5c(Cl)ncnc54)C3)cc12 (stereo not drawn) [11b] | did not present any activity and no | no | 15% |
| O=c1cc(OCC2CC(Cn3cnc4c(N5CCCCC5)ncnc43)=NO2)c2ccccc2o1 (stereo not drawn) [4f] | did not present any activity and no | 62% | no |
| O=c1cc(OCc2cc(Cn3cnc4c(N5CCOCC5)ncnc43)no2)c2ccccc2o1 [13i] | did not present any activity and no | 74% | 6% |

— PMC5748833, “Synthesis and Biological Evaluation of Novel Hybrid Molecules Containing Purine, Coumarin and Isoxazoline or Isoxazole Moieties” (The Open Medicinal Chemistry Journal, 2017)
